Experimental data published in US4255435A, “Triazole compounds” (priority 1980, dated 1981).
Values after ≈ are worked out from the molar mass of the structure shown.

Test system: larvae of the diamond back moth (Plutella maculipennis)
Assay: Mortality of larvae of the diamond back moth on treated cabbage leaf
Assay type: in vivo
Conditions: for LC50: Plutella, 48 h, read-out: Plutella maculipennis LD50 values; for ACTIVITY LD50: Table 1, cabbage leaf dipped in test solution, mortality after 24 + 24 hours, two replicates; for ACTIVITY LD50 / Plutella maculipennis LD50 values: 2880 min; for Plutella maculipennis LD50 values: Table 2, comparative 1,2,4-triazoles, method of Example 9
Method: Ten larvae were placed in a tube together with a square inch of cabbage leaf which had been dipped in the test solution and allowed to dry. After twenty-four hours untreated cabbage was added for food and after a further twenty-four hours an assessment was made of the mortality of the larvae.
Two replicates were carried out for each test compound and test solutions of varying concentrations employed so that an LD50 value could be calculated.

Row | Molecule | LC50 | further results
1 | Cc1nc(SCc2ccccc2)nn1C(=O)N(C)C [1-dimethylcarbamoyl-3-benzylthio-5-methyl-1,2,4-triazole] | > 5000 µg/mL | 
2 | 1(2)-N,N-dimethylcarbamoyl-3-s-butyl-5-vinylthio-1,2,4-triazole [methyl methyl s-butyl vinyl] |  | ACTIVITY LD50: 160 p.p.m.
3 | C=CCN(CC=C)C(=O)n1cnc(SCC(=O)OC)n1 [1-diallylcarbamoyl-3-methoxycarbonylmethylthio-1,2,4-triazole] | > 5000 µg/mL | 
4 | 1(2)-N,N-dimethylcarbamoyl-3-isopropyl-5-vinylthio-1,2,4-triazole [methyl methyl isopropyl vinyl] |  | ACTIVITY LD50: < 25 p.p.m.
5 | CCCCCCCCCCCCSc1ncn(C(=O)N(C)C)n1 [1-dimethylcarbamoyl-3-dodecylthio-1,2,4-triazole] | > 5000 µg/mL | 
6 | CSc1nc(C)nn1C(=O)N(C)C [1-dimethylcarbamoyl-3-methyl-5-methylthio-1,2,4-triazole] | 2200 µg/mL (≈ 11 mM) | 
7 | CCCCCCCCCCCc1nc(SC)n(C(=O)N(C)C)n1 [1-dimethylcarbamoyl-3-undecyl-5-methylthio-1,2,4-triazole] | > 5000 µg/mL | 
8 | CCCCCCSc1ncn(C(=O)N(C)C)n1 [1-dimethylcarbamoyl-3-n-hexylthio-1,2,4-triazole] | > 5000 µg/mL | 
9 | 1(2)-diallylcarbamoyl-3-ethylthio-5-methyl-1,2,4-triazole |  | Plutella maculipennis LD50 values: > 5000 p.p.m.
10 | C=CCN(CC=C)C(=O)n1cnc(SCCN(CC)CC)n1 [1-diallylcarbamoyl-3-(2-diethylaminoethylthio)-1,2,4-triazole] | > 5000 µg/mL | 
11 | CCc1nc(SC)n(C(=O)N(C)C)n1 [1-dimethylcarbamoyl-3-ethyl-5-methylthio-1,2,4-triazole] | 1900 µg/mL (≈ 8.87 mM) | 
12 | CN(C)C(=O)n1cnc(Br)n1 [1-dimethylcarbamoyl-3-bromo-1,2,4-triazole] | > 5000 µg/mL | 
13 | CN(C)C(=O)n1cnc(SSc2ncn(C(=O)N(C)C)n2)n1 [1-dimethylcarbamoyl-3-(1-dimethylcarbamoyl-1,2,4-triazole-3-yldithio)-1,2,4,-triazole] | > 5000 µg/mL | 
14 | CCCCCCCCCCCCSc1nc(C)n(C(=O)N(C)C)n1 [1-dimethylcarbamoyl-3-dodecylthio-5-methyl-1,2,4-triazole] | > 5000 µg/mL | 
15 | CSc1nc(-c2ccccc2)nn1C(=O)N(C)C [1-dimethylcarbamoyl-3-phenyl-5-methylthio-1,2,4-triazole] | > 5000 µg/mL | 
16 | 1(2)-diethylcarbamoyl-3-methylthio-5-methyl-1,2,4-triazole |  | Plutella maculipennis LD50 values: > 5000 p.p.m.
17 | Cc1ncn(C(=O)N(C)C)n1 [1-dimethylcarbamoyl-3-methyl-1,2,4-triazole] | > 5000 µg/mL | 
18 | CN(C)C(=O)n1cnc(SC2CCCCC2)n1 [1-dimethylcarbamoyl-3-cyclohexylthio-1,2,4-triazole] | > 5000 µg/mL | 
19 | CCSc1ncn(C(=O)N(CC#N)CC#N)n1 [1-di(cyanomethyl)carbamoyl-3-ethylthio-1,2,4-triazole] | > 5000 µg/mL | 
20 | CC1CCN(C(=O)n2cncn2)CC1 [1-(4-methylpiperidinocarbonyl)-1,2,4-triazole] | > 5000 µg/mL | 
21 | CSc1ncn(C(=O)N(C)C)n1 [1-dimethylcarbamoyl-3-methylthio-1,2,4-triazole] | 2300 µg/mL (≈ 12.3 mM) | 
22 | 2(2)-dimethylthiocarbamoyl-3-methylthio-5-methyl-1,2,4-triazole |  | Plutella maculipennis LD50 values: > 5000 p.p.m.
23 | 1(2)-dimethlcarbamoyl-3-ethylthio-5-methyl-1,2,4-triazole |  | Plutella maculipennis LD50 values: 1600 p.p.m.
24 | 1(2)-pyrrolidinocarbonyl-3-methylthio-5-methyl-1,2,4-triazole |  | Plutella maculipennis LD50 values: > 5000 p.p.m.
25 | Cc1nc(Sc2ccc([N+](=O)[O-])cc2)nn1C(=O)N(C)C [1-dimethylcarbamoyl-3-p-nitrophenylthio-5-methyl-1,2,4-triazole] | > 5000 µg/mL | 
26 | 1(2)-N-ethyl-N-methylcarbamoyl-3-t-butyl-5-prop-2-ynylthio-1,2,4-triazole [ethyl methyl t-butyl prop-2-ynyl] |  | ACTIVITY LD50: 68 p.p.m.
